pIC50: −log10 of the molar value.
How the values were obtained:
Format in all cases: cell-based
HCN3 = target: T1, HCN3 (Homo sapiens, UniProt Q9P1Z3); assay: HCN3 automated patch clamp current inhibition assay (Ionworks Barracuda); details: HEK-293 cells stably expressing HCN3; current inhibition during a hyperpolarizing pulse of -100 mV
T1 construct: expressed in transfected cells
T1 sequence (Q9P1Z3 1-774): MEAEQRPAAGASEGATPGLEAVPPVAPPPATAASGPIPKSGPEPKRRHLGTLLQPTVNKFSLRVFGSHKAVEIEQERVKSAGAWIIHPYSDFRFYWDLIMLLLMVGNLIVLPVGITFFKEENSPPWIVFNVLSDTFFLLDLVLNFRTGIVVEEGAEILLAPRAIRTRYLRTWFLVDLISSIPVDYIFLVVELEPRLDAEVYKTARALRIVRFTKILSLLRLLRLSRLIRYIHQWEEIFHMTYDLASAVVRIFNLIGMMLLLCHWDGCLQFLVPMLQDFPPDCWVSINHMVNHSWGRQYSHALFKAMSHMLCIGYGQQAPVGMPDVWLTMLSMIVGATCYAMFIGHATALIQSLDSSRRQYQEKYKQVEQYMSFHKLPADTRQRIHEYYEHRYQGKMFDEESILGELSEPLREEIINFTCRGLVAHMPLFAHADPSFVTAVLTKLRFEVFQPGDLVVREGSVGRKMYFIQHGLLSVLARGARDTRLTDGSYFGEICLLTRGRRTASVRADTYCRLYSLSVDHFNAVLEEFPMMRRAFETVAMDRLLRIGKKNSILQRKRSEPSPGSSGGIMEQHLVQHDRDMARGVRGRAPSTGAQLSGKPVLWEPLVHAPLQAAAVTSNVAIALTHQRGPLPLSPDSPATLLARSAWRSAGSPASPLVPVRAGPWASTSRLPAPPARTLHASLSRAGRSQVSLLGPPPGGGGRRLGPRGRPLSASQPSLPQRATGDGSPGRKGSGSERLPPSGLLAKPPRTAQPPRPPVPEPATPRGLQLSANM
Method: (§1) In vitro, high-throughput cellular electrophysiology was employed to detect voltage- and use-dependence of compounds in single concentration screening and IC50 determination for library and medicinal chemistry profiling compounds in 384 well plates.
(§2) Cell cultures were maintained in DMEM/F12 cell growth media containing FBS and appropriate antibiotics at 37° C., 5% CO2 for a maximum of 20 passages. At a time point of 40-72 hours prior to assay, the expression of HCN protein in the cells is induced by addition of tetracyclin. Cells may be incubated at 27° C. for 2-24 hours of induction. […] Cells were harvested at 80% confluency and resuspended in extracellular buffer and added to wells. A freshly prepared Escin solution was added to intracellular buffer and applied to establish whole cell recording via perforated patch clampling by APC.
(§3) Currents through activated channels were measured directly by APC by employing hyperpolarizing voltage steps. The activation window was increased and stabilized by the addition of cell permeable Br-cAMP. Baselines were established for both use- and voltage-dependence protocols using a −30 mV holding potential and multiple test pulses at −100 mV or by 20 mV steps from −120 to 0 mV, respectively. Test compounds were added after baseline recordings followed by a 10 min incubation, voltage-dependency protocol recording, and use-dependency recording. Data was corrected for baseline and rundown (well based) and normalized for % inhibition (plate based). Five previously reported HCN inhibitors of varying potencies and selectivities and zatebradine were used for run to run and plate to plate quality controls. […] Percent inhibition was analysed at −80, −100, −120 mV of the voltage-dependency protocol and at pulse 0 and 50 of the use-dependency protocols. Selectivity was assessed against HCN2, HCN3, and HCN4 overexpressing cell lines using similar methods. As HCN4 has a slower activation than the other HCN channels, activation was extended to achieve steady state activation.

HCN1 = target: T2, HCN1 (Homo sapiens, UniProt O60741); assay: HCN1 automated patch clamp current inhibition assay (Ionworks Barracuda); details: HEK-293 cells stably expressing HCN1; current inhibition during a hyperpolarizing pulse of -100 mV
T2 construct: expressed in transfected cells
T2 sequence (O60741 1-890): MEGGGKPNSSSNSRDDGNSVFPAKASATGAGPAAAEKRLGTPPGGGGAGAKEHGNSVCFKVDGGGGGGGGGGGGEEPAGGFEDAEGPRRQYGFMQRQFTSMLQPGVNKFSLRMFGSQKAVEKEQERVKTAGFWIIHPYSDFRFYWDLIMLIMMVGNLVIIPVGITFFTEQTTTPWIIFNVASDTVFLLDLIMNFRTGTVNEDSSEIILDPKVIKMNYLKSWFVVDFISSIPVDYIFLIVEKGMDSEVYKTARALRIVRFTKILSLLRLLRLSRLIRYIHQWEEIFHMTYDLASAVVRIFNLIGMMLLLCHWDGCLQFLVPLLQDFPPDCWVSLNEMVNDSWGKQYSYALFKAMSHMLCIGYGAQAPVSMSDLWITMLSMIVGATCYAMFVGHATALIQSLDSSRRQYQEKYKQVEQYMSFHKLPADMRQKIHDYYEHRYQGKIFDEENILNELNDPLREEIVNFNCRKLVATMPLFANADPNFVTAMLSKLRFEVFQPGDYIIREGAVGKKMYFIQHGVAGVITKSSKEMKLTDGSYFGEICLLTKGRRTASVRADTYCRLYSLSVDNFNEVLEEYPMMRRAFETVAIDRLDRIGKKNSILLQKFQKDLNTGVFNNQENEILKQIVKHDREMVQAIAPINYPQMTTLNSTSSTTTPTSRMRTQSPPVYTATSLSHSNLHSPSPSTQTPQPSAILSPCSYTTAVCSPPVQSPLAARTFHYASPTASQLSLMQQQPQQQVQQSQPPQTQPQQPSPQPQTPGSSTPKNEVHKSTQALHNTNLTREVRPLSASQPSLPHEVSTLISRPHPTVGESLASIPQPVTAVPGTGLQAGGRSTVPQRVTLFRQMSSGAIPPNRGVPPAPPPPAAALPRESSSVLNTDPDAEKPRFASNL
Method: as §1, §2, §3

HCN4 = target: T3, HCN4 (Homo sapiens, UniProt Q9Y3Q4); assay: HCN4 automated patch clamp current inhibition assay (Ionworks Barracuda); details: HEK-293 cells stably expressing HCN4; current inhibition during a hyperpolarizing pulse of -100 mV
T3 construct: expressed in transfected cells
T3 sequence (Q9Y3Q4 1-1203): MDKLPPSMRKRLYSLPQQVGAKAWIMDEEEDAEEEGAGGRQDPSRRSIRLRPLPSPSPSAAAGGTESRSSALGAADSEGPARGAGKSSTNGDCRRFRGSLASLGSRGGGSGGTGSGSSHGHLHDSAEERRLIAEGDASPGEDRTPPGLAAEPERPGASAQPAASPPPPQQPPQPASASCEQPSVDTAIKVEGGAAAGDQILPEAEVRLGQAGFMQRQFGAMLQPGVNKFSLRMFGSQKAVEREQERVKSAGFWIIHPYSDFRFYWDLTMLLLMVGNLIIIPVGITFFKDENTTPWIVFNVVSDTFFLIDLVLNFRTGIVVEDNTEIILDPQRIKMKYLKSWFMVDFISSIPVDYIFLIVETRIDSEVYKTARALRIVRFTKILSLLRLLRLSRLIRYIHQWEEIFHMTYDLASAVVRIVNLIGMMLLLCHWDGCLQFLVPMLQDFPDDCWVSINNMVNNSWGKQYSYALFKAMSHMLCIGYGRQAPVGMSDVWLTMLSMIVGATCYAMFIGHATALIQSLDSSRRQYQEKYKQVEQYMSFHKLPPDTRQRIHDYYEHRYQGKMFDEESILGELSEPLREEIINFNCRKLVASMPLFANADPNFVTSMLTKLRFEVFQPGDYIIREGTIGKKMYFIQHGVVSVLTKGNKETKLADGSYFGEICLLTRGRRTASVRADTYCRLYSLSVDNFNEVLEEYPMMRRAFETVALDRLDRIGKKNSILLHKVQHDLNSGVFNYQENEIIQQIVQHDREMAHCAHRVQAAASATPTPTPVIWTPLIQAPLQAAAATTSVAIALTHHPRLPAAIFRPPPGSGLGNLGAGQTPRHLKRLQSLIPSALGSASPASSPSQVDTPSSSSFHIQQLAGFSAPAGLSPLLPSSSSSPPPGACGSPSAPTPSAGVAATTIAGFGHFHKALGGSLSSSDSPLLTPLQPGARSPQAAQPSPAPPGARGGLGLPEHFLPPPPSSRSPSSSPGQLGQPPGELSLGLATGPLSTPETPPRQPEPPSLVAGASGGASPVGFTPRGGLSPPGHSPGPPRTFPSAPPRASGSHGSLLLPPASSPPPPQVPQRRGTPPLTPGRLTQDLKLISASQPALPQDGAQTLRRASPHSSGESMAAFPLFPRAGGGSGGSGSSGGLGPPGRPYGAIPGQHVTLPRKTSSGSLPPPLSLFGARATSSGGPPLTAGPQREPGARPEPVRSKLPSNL
Method: as §1, §2, §3

**Q.** With `Cc1ccc(-n2c(C(N)=O)nc(C#Cc3cccc4c3OCO4)c2C)cn1` [Example 13, 4-(Benzo[d][1,3]dioxol-4-ylethynyl)-5-methyl-1-(6-methylpyridin-3-yl)-1H-imidazole-2-carboxamide] as the compound, how does the pIC50 (HCN3) read?
**A.** < 4.40

**Q.** What about the pIC50 (HCN1) of the same compound?
**A.** 6.04

**Q.** What does the source list for `Cc1ccc(-n2c(C(N)=O)nc(C#Cc3cccc(Cl)n3)c2C)cn1` [Example 14, 4-((6-Chloropyridin-2-yl)ethynyl)-5-methyl-1-(6-methylpyridin-3-yl)-1H-imidazole-2-carboxamide]?
**A.** pIC50 (HCN3): < 4.40; pIC50 (HCN1): 5.71

**Q.** With `Cc1ccc(-n2c(C(N)=O)nc(C#Cc3cc(Cl)ccn3)c2C)cn1` [Example 18, 4-((4-Chloropyridin-2-yl)ethynyl)-5-methyl-1-(6-methylpyridin-3-yl)-1H-imidazole-2-carboxamide] as the compound, how does the pIC50 (HCN3) read?
**A.** < 4.40

**Q.** What about the pIC50 (HCN1) of the same compound?
**A.** 5.39

**Q.** `Cc1ccc(-n2c(C(N)=O)nc(C#Cc3ccncc3)c2C)cn1` [Example 21, 5-Methyl-1-(6-methyl-3-pyridyl)-4-[2-(4-pyridyl)ethynyl]imidazole-2-carboxamide] was tested. Which pIC50 (HCN3) did it give?
**A.** < 4.40

**Q.** What about the pIC50 (HCN1) of the same compound?
**A.** 4.95

**Q.** What does the source list for `Cc1cncc(-n2c(C(N)=O)nc(C#Cc3ccnc(Cl)c3C)c2C)c1` [Example 25, 4-[2-(2-Chloro-3-methyl-4-pyridyl)ethynyl]-5-methyl-1-(5-methyl-3-pyridyl)imidazole-2-carboxamide]?
**A.** pIC50 (HCN3): 4.69; pIC50 (HCN4): < 4.40; pIC50 (HCN1): 6.90

**Q.** How did the pIC50 (HCN3) turn out when `Cc1ccc(-c2c(C(N)=O)nc(C#Cc3ccnc(Cl)c3C)n2C)cn1` [Example 33] was run?
**A.** < 4.40

**Q.** What about the pIC50 (HCN4) of the same compound?
**A.** < 4.40

**Q.** What about the pIC50 (HCN1) of the same compound?
**A.** 6.02

**Q.** With `Cc1ccc(-c2c(C(N)=O)nc(C#Cc3cccc(Cl)c3)n2C)cn1` [Example 34, 2-[2-(3-Chlorophenyl)ethynyl]-1-methyl-5-(6-methyl-3-pyridyl)imidazole-4-carboxamide] as the compound, how does the pIC50 (HCN3) read?
**A.** 5.31

**Q.** What about the pIC50 (HCN4) of the same compound?
**A.** < 4.40

**Q.** What about the pIC50 (HCN1) of the same compound?
**A.** 7.00

**Q.** Which results are given for `Cc1ccc(-n2c(C(N)=O)nc(C#Cc3ccccc3)c2C)cc1` [Example 37, 5-Methyl-4-(phenylethynyl)-1-(p-tolyl)-1H-imidazole-2-carboxamide]?
**A.** pIC50 (HCN3): < 4.40; pIC50 (HCN1): 5.51

**Q.** Which results are given for `Cc1c(C#Cc2ccnc(Cl)c2)nc(C(N)=O)n1-c1ccc(F)cc1F` [Example 41, 4-(2-Chloro-pyridin-4-ylethynyl)-1-(2,4-difluoro-phenyl)-5-methyl-1H-imidazole-2-carboxylic Acid Amide]?
**A.** pIC50 (HCN3): < 4.40; pIC50 (HCN1): 4.76

**Q.** What does the source list for `Cc1ccc(-n2cc(C#Cc3ccnc(Cl)c3)nc2C(N)=O)cn1` [Example 43, 4-((2-Chloropyridin-4-yl)ethynyl)-1-(6-methylpyridin-3-yl)-1H-imidazole-2-carboxamide]?
**A.** pIC50 (HCN3): < 4.40; pIC50 (HCN1): 5.60

**Q.** `Cc1ccc(-c2c(C(N)=O)nc(C#Cc3cccc(Cl)c3C)n2C)cn1` [Example 44, 2-[2-(3-Chloro-2-methyl-phenyl)ethynyl]-1-methyl-5-(6-methyl-3-pyridyl)imidazole-4-carboxamide] was tested. Which pIC50 (HCN3) did it give?
**A.** < 4.40

**Q.** What about the pIC50 (HCN4) of the same compound?
**A.** < 4.40

**Q.** And the pIC50 (HCN1)?
**A.** 6.64

From patent US12528784B2, “Alkynyl-(heteroaryl)-carboxamide HCN1 inhibitors” (Hoffmann-La Roche Inc., priority 2019, dated 2026)
